US20260035384A1, “COMPOUND CONTAINING CYCLOHEXYL” (CHIA TAI TIANQING PHARMACEUTICAL GROUP CO., LTD., priority 2022, published 2026)

Assays:
LNCaP cells = assay: Assay on inhibitory activity for LNCaP cell proliferation (CCK-8); type: cell-based; details: 168 h incubation
Experimental: (§1) LNCaP cells in a good growth state were taken, washed with PBS, digested with pancreatin, and added with 2% CSS—FBS phenol red-free 1640 complete medium to terminate the digestion. The cells were collected by using a centrifuge tube, adjusted to a cell density of 1×10^5 cells/mL, and seeded in a 96-well plate (100 μL/well). Meanwhile, compounds were added using a nanoliter pipettor such that the final concentrations of the compounds were 10000 nM-0.61 nM. Two duplicate wells were set for each concentration, and meanwhile, a control was set. After another 168 h of incubation in the cell incubator, the detection reagent CCK-8 (manufacturer: Dojindo, 10 μL/well) was added.

VCaP cells = assay: Assay on inhibitory activity for VCaP cell proliferation (CCK-8); type: cell-based; details: 168 h incubation
Experimental: as §1, with “2.1 Assay on inhibitory activity for VCaP cell proliferation VCaP” for “LNCaP”, “5%” for “2%”, “DMEM” for “1640”

| SMILES | IC50 (LNCaP cells; Homo sapiens) [nM] | IC50 (VCaP cells; Homo sapiens, VCaP, 168 h) [nM] | other results |
| --- | --- | --- | --- |
| N#Cc1ccc(O[C@H]2CC[C@H](NC(=O)c3ccc(N4CCC(N5CC(n6ncc7c8c(C9CCC(=O)NC9=O)noc8ccc76)C5)CC4)nn3)CC2)cc1Cl (stereo partly drawn) [Compound 43] | < 1000 |  |  |
| N#Cc1ccc(O[C@H]2CC[C@H](NC(=O)c3ccc(N4CCC(N5CC(n6ccc7c8c(C9CCC(=O)NC9=O)noc8ccc76)C5)CC4)nn3)CC2)cc1Cl (stereo partly drawn) [Compound 39] | < 1000 |  |  |
| N#Cc1ccc(O[C@H]2CC[C@H](NC(=O)c3ccc(C4CCN(CC5Cc6ccc7c(C8CCC(=O)NC8=O)coc7c6C5)CC4)nn3)CC2)cc1Cl (stereo partly drawn) [Compound 33] |  |  | IC50 (LNCaP cells): < 1000 nM |
| N#Cc1ccc(O[C@H]2CC[C@H](NC(=O)c3cnc(N4CCC5(CC4)CC(CN4CCc6ccc7c(C8CCC(=O)NC8=O)noc7c6C4)C5)nc3)CC2)cc1Cl (stereo partly drawn) [Compound 129] | < 1000 | < 100 |  |
| CN(c1ccc(C#N)c(Cl)c1)[C@H]1CC[C@H](NC(=O)c2cnc(N3CC(CN4CCc5c(ccc6c(C7CCC(=O)NC7=O)noc56)C4)C3)nc2)CC1 (stereo partly drawn) [Compound 114] | < 1000 | < 100 |  |
| N#Cc1ccc(O[C@H]2CC[C@H](NC(=O)c3cnc(N4CCC(N5CC(CN6CCc7ccc8c(C9CCC(=O)NC9=O)coc8c7C6)C5)CC4)nc3)CC2)cc1Cl (stereo partly drawn) [Compound 104] |  | < 10 |  |
| CN(c1ccc(C#N)c(Cl)c1)[C@H]1CC[C@H](NC(=O)c2ccc(C3CCN(CC4Cc5ccc6c(C7CCC(=O)NC7=O)noc6c5C4)CC3)cc2)CC1 (stereo partly drawn) [Compound 68] |  | < 10 |  |
| N#Cc1ccc(O[C@H]2CC[C@H](NC(=O)c3cnc(N4CCC(CN5Cc6ccc7c(C8CCC(=O)NC8=O)coc7c6C5)CC4)nc3)CC2)cc1Cl (stereo partly drawn) [Compound 132] | < 1000 | < 1000 |  |
| N#Cc1ccc(O[C@H]2CC[C@H](NC(=O)c3cnc(N4CCC(CN5CCc6c(ccc7c(C8CCC(=O)NC8=O)coc67)C5)CC4)nc3)CC2)cc1Cl (stereo partly drawn) [Compound 134] | < 1000 | < 100 |  |
| N#Cc1ccc(O[C@H]2CC[C@H](NC(=O)c3ccc(N4CCC(N5CCC(n6ccc7c8c(C9CCC(=O)NC9=O)noc8ccc76)CC5)CC4)nn3)CC2)cc1Cl (stereo partly drawn) [Compound 40] | < 1000 |  |  |
| N#Cc1ccc(O[C@H]2CC[C@H](NC(=O)c3cnc(N4CCC(N5CC(CN6CCc7c(ccc8c(C9CCC(=O)NC9=O)coc78)C6)C5)CC4)nc3)CC2)cc1Cl (stereo partly drawn) [Compound 105] |  | < 10 |  |
| N#Cc1ccc(O[C@H]2CC[C@H](NC(=O)c3cnc(N4CCC(CN5CCc6ccc7c(C8CCC(=O)NC8=O)coc7c6CC5)CC4)nc3)CC2)cc1Cl (stereo partly drawn) [Compound 135] | < 1000 |  |  |
| CN(c1ccc(C#N)c(Cl)c1)[C@H]1CC[C@H](NC(=O)c2cnc(N3CCC(CN4Cc5ccc6c(C7CCC(=O)NC7=O)noc6c5C4)CC3)nc2)CC1 (stereo partly drawn) [Compound 115] |  | < 1000 |  |
| N#Cc1ccc(O[C@H]2CC[C@H](NC(=O)c3ccc(N4CCC(CN5CC(n6ncc7c8c(C9CCC(=O)NC9=O)noc8ccc76)C5)CC4)nn3)CC2)cc1Cl (stereo partly drawn) [Compound 42] |  | < 10 |  |
| CN(c1ccc(C#N)c(Cl)c1)[C@H]1CC[C@H](NC(=O)c2cnc(N3CCC(CN4CCc5ccc6c(C7CCC(=O)NC7=O)noc6c5C4)CC3)nc2)CC1 (stereo partly drawn) [Compound 116] | < 1000 |  |  |
| CN(c1ccc(C#N)c(Cl)c1)[C@H]1CC[C@H](NC(=O)c2ccc(N3CCC(CN4CCc5ccc6c(C7CCC(=O)NC7=O)noc6c5CC4)CC3)cc2)CC1 (stereo partly drawn) [Compound 59] |  |  | IC50 (VCaP cells; Homo sapiens): < 10 nM |
| N#Cc1ccc(O[C@H]2CC[C@H](NC(=O)c3cnc(N4CCN(CC5Cc6ccc7c(C8CCC(=O)NC8=O)noc7c6C5)CC4)nc3)CC2)cc1Cl (stereo partly drawn) [Compound 124] |  |  | IC50 (VCaP cells): < 1000 nM |
| N#Cc1ccc(O[C@H]2CC[C@H](NC(=O)c3ccc(N4CCC(CN5CC(n6cc7c(ccc8onc(C9CCC(=O)NC9=O)c87)n6)C5)CC4)nn3)CC2)cc1Cl (stereo partly drawn) [Compound 44] | < 1000 |  |  |
| N#Cc1ccc(O[C@H]2CC[C@H](NC(=O)c3cnc(N4CCC(N5CC(CN6CCc7ccc8c(C9CCC(=O)NC9=O)coc8c7CC6)C5)CC4)nc3)CC2)cc1Cl (stereo partly drawn) [Compound 106] |  | < 100 |  |
| N#Cc1ccc(O[C@H]2CC[C@H](NC(=O)c3ccc(N4CCC(N5CC(CN6Cc7cc8onc(C9CCC(=O)NC9=O)c8cc7C6)C5)CC4)nn3)CC2)cc1Cl (stereo partly drawn) [Compound 101] |  | < 10 |  |
| N#Cc1ccc(O[C@H]2CC[C@H](NC(=O)c3ccc(C4CCN(CC5Cc6ccc7c(C8CCC(=O)NC8=O)noc7c6C5)CC4)nn3)CC2)cc1Cl (stereo partly drawn) [Compound 31] |  |  | IC50 (LNCaP cells): < 1000 nM |
| N#Cc1ccc(O[C@H]2CC[C@H](NC(=O)c3cnc(N4CCC(N5CC(CN6Cc7ccc8c(C9CCC(=O)NC9=O)coc8c7C6)C5)CC4)nc3)CC2)cc1Cl (stereo partly drawn) [Compound 103] |  | < 10 |  |
| N#Cc1ccc(O[C@H]2CC[C@H](NC(=O)c3cnc(N4CCC(CN5CCc6ccc7c(N8CCC(=O)NC8=O)coc7c6CC5)CC4)nc3)CC2)cc1Cl [Compound 141] | < 1000 |  |  |
| N#Cc1ccc(O[C@H]2CC[C@H](NC(=O)c3cnc(N4CCC(CN5Cc6ccc7c(N8CCC(=O)NC8=O)coc7c6C5)CC4)nc3)CC2)cc1Cl [Compound 138] | < 1000 |  |  |
| N#Cc1ccc(O[C@H]2CC[C@H](NC(=O)c3ccc(N4CCC(CN5CC(n6ccc7c8c(C9CCC(=O)NC9=O)noc8ccc76)C5)CC4)nn3)CC2)cc1Cl (stereo partly drawn) [Compound 38] | < 1000 |  |  |

Further lines, with some results ahead:

| IC50 (LNCaP cells; Homo sapiens) [nM] | IC50 (VCaP cells; Homo sapiens, VCaP, 168 h) [nM] | SMILES | other results |
| --- | --- | --- | --- |
| < 1000 |  | N#Cc1ccc(O[C@H]2CC[C@H](NC(=O)c3ccc(C4CCN([C@H]5CC[C@H](n6ccc7c8c(C9CCC(=O)NC9=O)noc8ccc76)CC5)CC4)nn3)CC2)cc1Cl (stereo partly drawn) [Compound 55] |  |
| < 1000 |  | N#Cc1ccc(O[C@H]2CC[C@H](NC(=O)c3ccc(C4CCN(CC5Cc6ccc7c(C8CCC(=O)NC8=O)coc7c6C5)CC4)nn3)CC2)cc1Cl (stereo partly drawn) [Compound 32] |  |
| < 1000 |  | N#Cc1ccc(O[C@H]2CC[C@H](NC(=O)c3ccc(C4CCN(C[C@H]5C[C@@H](n6ccc7c8c(C9CCC(=O)NC9=O)noc8ccc76)C5)CC4)nn3)CC2)cc1Cl (single isomer, unassigned) [Compound 51] |  |
| < 1000 | < 1000 | N#Cc1ccc(O[C@H]2CC[C@H](NC(=O)c3cnc(N4CCN(CC5Cc6ccc7c(C8CCC(=O)NC8=O)noc7c6C5)CC4)nc3)CC2)cc1Cl (stereo partly drawn) [Compound 123] |  |
| < 1000 | < 100 | N#Cc1ccc(O[C@H]2CC[C@H](NC(=O)c3ccc(N4CCN(CC5Cc6ccc7c(C8CCC(=O)NC8=O)coc7c6C5)CC4)nn3)CC2)cc1Cl (stereo partly drawn) [Compound 28] |  |
| < 1000 |  | N#Cc1ccc(O[C@H]2CC[C@H](NC(=O)c3ccc(N4CCC(CN5Cc6cc7onc(C8CCC(=O)NC8=O)c7cc6C5)CC4)nn3)CC2)cc1Cl (stereo partly drawn) [Compound 100] |  |
| < 1000 | < 1000 | N#Cc1ccc(O[C@H]2CC[C@H](NC(=O)c3cnc(N4CCC(CN5CCc6ccc7c(C8CCC(=O)NC8=O)noc7c6C5)CC4)nc3)CC2)cc1Cl (stereo partly drawn) [Compound 120] |  |
| < 1000 | < 10 | N#Cc1ccc(O[C@H]2CC[C@H](NC(=O)c3ccc(N4CCC(N5CC(CN6CCc7ccc8c(C9CCC(=O)NC9=O)noc8c7CC6)C5)CC4)nn3)CC2)cc1Cl (stereo partly drawn) [Compound 93] |  |
| < 1000 | < 1000 | N#Cc1ccc(O[C@H]2CC[C@H](NC(=O)c3ncc(N4CCC(CN5CCc6c(ccc7c(C8CCC(=O)NC8=O)noc67)C5)CC4)cn3)CC2)cc1Cl (stereo partly drawn) [Compound 146] |  |
| < 1000 |  | N#Cc1ccc(O[C@H]2CC[C@H](NC(=O)c3cnc(N4CC[C@H](CN5CCc6c(ccc7c(C8CCC(=O)NC8=O)noc67)C5)C4)nc3)CC2)cc1Cl (stereo partly drawn) [Compound 143] |  |
| < 1000 |  | N#Cc1ccc(O[C@H]2CC[C@H](NC(=O)c3cnc(N4CC[C@@H](CN5CCc6c(ccc7c(C8CCC(=O)NC8=O)noc67)C5)C4)nc3)CC2)cc1Cl (stereo partly drawn) [Compound 144] |  |
| < 1000 |  | N#Cc1ccc(O[C@H]2CC[C@H](NC(=O)c3ccc(N4CCN(CC5Cc6cc(C7CCC(=O)NC7=O)c7ccoc7c6C5)CC4)nn3)CC2)cc1Cl (stereo partly drawn) [Compound 29] |  |
|  | < 1000 | N#Cc1ccc(O[C@H]2CC[C@H](NC(=O)c3cnc(C4CCN(CC5Cc6ccc7c(C8CCC(=O)NC8=O)noc7c6C5)CC4)nc3)CC2)cc1Cl (stereo partly drawn) [Compound 125] |  |
| < 1000 |  | N#Cc1ccc(O[C@H]2CC[C@H](NC(=O)c3ccc(C4CCN([C@H]5C[C@@H](n6ccc7c8c(C9CCC(=O)NC9=O)noc8ccc76)C5)CC4)nn3)CC2)cc1Cl (stereo partly drawn) [Compound 49] |  |
| < 1000 |  | N#Cc1ccc(O[C@H]2CC[C@H](NC(=O)c3ccc(C4CCN(CC5Cc6ccc7c(C8CCC(=O)NC8=O)noc7c6C5)CC4)nn3)CC2)cc1Cl (stereo partly drawn) [Compound 30] |  |
|  | < 100 | N#Cc1ccc(O[C@H]2CC[C@H](NC(=O)c3cnc(C4=CCN(CC5Cc6ccc7c(C8CCC(=O)NC8=O)noc7c6C5)CC4)nc3)CC2)cc1Cl (stereo partly drawn) [Compound 127] |  |
| < 1000 |  | N#Cc1ccc(O[C@H]2CC[C@H](NC(=O)c3ccc(C4CCN([C@H]5C[C@H](n6ccc7c8c(C9CCC(=O)NC9=O)noc8ccc76)C5)CC4)nn3)CC2)cc1Cl (stereo partly drawn) [Compound 50] |  |
| < 1000 |  | N#Cc1ccc(O[C@H]2CC[C@H](NC(=O)c3ccc(C4CCN([C@H]5CC[C@@H](n6ccc7c8c(C9CCC(=O)NC9=O)noc8ccc76)CC5)CC4)nn3)CC2)cc1Cl (stereo partly drawn) [Compound 54] |  |
| < 1000 |  | N#Cc1ccc(O[C@H]2CC[C@H](NC(=O)c3ccc(C4CCN(C[C@H]5C[C@H](n6ccc7c8c(C9CCC(=O)NC9=O)noc8ccc76)C5)CC4)nn3)CC2)cc1Cl (single isomer, unassigned) [Compound 52] |  |
| < 1000 |  | N#Cc1ccc(O[C@H]2CC[C@H](NC(=O)c3ccc(N4CCC(N5CCc6ccc7c(C8CCC(=O)NC8=O)noc7c6CC5)CC4)nn3)CC2)cc1Cl (stereo partly drawn) [Compound 23] |  |
